Source: US5681832A, “Aroylaniline compounds, pharmaceutical compositions, and methods of using same to inhibit viral activity” (priority 1995, dated 1997)

What was measured:
[1] = test system: T4 lymphocytes (CEM cell line); test: toxicity control: survival of uninfected T4 lymphocytes (CEM cell line) treated with compound (growth inhibition); format: cell-based
Experimental: (§1) 1. Candidate agent is dissolved in dimethyl sulfoxide (unless otherwise instructed) and then diluted 1:100 in cell culture medium before preparing serial half-log10 dilutions which are then to 96-well microfilter plates. T4 lymphocytes (CEM cell line) are added, and after a brief interval HIV-1 is added to all wells, resulting in a 1:200 final dilution […]. Uninfected cells with the compound serve as a toxicity control, and infected and uninfected cells without the compound serve as basic controls.
(§2) 2. Cultures are incubated at 37° C. in a 5% carbon dioxide atmosphere for 6 days.
(§3) 3. The tetrazolium salt, XTT, is added to all wells, and cultures are incubated to allow formazan color development by viable cells.
(§4) 4. Individual wells are analyzed spectrophotometrically to quantitate formazan production, and in addition are viewed microscopically for detection of viable cells and confirmation of protective activity.
(§5) 5. Drug-tested virus-infected cells are compared with drug-treated noninfected cells and with other appropriate controls (untreated infected and untreated noninfected cells, drug-containing wells without cells, etc.) on the same plate.
(§6) FIGS. 1 to 6 display a plot of the log10 of the concentrations (as μg/mL or molar as shown) of the aroylaniline compounds, Compounds 1, 3, 13, 14, 29 and 32, against the measured test values expressed as a percentage of the uninfected, untreated control values. The solid line depicts the percentage of surviving HIV-infected cells treated with sample (at the indicated concentration) relative to uninfected, untreated controls. Thus, the solid line expresses the anti-HIV activity of the compound. The dashed line depicts the percentage of surviving uninfected cells treated with the compound relative to the same uninfected, untreated controls. Thus, the dashed line expresses the growth inhibitory properties of the compound. The viral cytopathic effect […] is indicated by a dotted reference line. […] Survival values of this parameter less than 50% are considered acceptable in the current protocol. Approximate values for 50% effective concentration (EC50) have been calculated for each test and are set forth for these Compounds in Tables 2-7, respectively.

HIV-1 = test: in vitro anti-HIV screening (NCI XTT soluble-formazan assay, protection of HIV-1-infected CEM T4 lymphocytes from cytolysis); format: cell-based
Source text: The aroylaniline compounds of the present invention were subjected to in vitro screening to determine their anti-HIV activity.
The National Cancer Institute's procedure for testing for agents active against Human Immunodeficiency Virus (HIV) (Weislow, O. W. et al., "New soluble-formazan assay for HIV-1 cytopathic effects: application to high-flux screening of synthetic and natural products for AIDS-antiviral activity," J. Natl Cancer Inst., 81, 577-586 (1989)) is designed to detect agents acting at any stage of the virus reproductive cycle. The assay includes the killing of T4 lymphocytes by HIV. Pursuant to the test, small amounts of HIV are added to cells, and a complete cycle of virus reproduction is necessary to obtain the required cell killing. Agents that interact with virions, cells, or virus gene-products to interfere with viral activities will protect cells from cytolysis. The system is thus designed to detect anti-HIV activity. However, compounds that are chemically labile or are rapidly metabolized in the culture conditions may not show activity in this screen. All tests are compared with at least one positive (e.g., AZT-treated) control done at the same time under identical conditions.
as §1, §2, §3, §4, §5
6. Data are reviewed in comparison with other tests done at the same time and a determination about activity is made.
The aroylaniline compounds of the present invention were tested for anti-HIV activity according to the above procedure. FIGS. 1-6 represent test results of the aroylaniline compounds of Compounds 1, 3, 13, 14, 29 and 32.
as §6

**Q.** What does the source list for “N,N'-Bis(4-amino-2-sulfobenzoyl)-4,4'-diaminostilbene-2,2-disulfonic acid tetrasodium salt [Compound 32]”?
**A.** Percent of Control, Uninfected ([1]; 2.00 × 10^-4 Molar): 35.45%; Percent of Control, Uninfected ([1]; 2.00 × 10^-5 Molar): 98.84%; Percent of Control, Uninfected ([1]; 2.01 × 10^-6 Molar): 98.97%; Percent of Control, Uninfected ([1]; 2.01 × 10^-7 Molar): 82.40%; Percent of Control, Uninfected ([1]; 6.33 × 10^-5 Molar): 95.50%; Percent of Control, Uninfected ([1]; 6.34 × 10^-6 Molar): 94.34%; Percent of Control, Uninfected ([1]; 6.35 × 10^-7 Molar): 95.11%; Percent of Control, Uninfected ([1]; 6.36 × 10^-8 Molar): 83.94%; IC50 ([1]; uninfected CEM cells, 6 days, read-out: IC50 (Molar)): 151 µM; Percent of Control, Infected (HIV-1; 2.00 × 10^-4 Molar): 61.85%; Percent of Protection (HIV-1; 2.00 × 10^-4 Molar, 200 µM): 52.90%; Percent of Control, Infected (HIV-1; 2.00 × 10^-5 Molar): 112.68%; Percent of Protection (HIV-1; 2.00 × 10^-5 Molar, 20 µM): 115.65%; Percent of Control, Infected (HIV-1; 2.01 × 10^-6 Molar): 97.97%; Percent of Protection (HIV-1; 2.01 × 10^-6 Molar, 2.01 µM): 97.49%; Percent of Control, Infected (HIV-1; 2.01 × 10^-7 Molar): 14.10%; Percent of Protection (HIV-1; 2.01 × 10^-7 Molar, 0.201 µM): -6.05%; Percent of Control, Infected (HIV-1; 6.33 × 10^-5 Molar): 115.38%; Percent of Protection (HIV-1; 6.33 × 10^-5 Molar, 63.3 µM): 118.99%; Percent of Control, Infected (HIV-1; 6.34 × 10^-6 Molar): 105.65%; Percent of Protection (HIV-1; 6.34 × 10^-6 Molar, 6.34 µM): 106.98%; Percent of Control, Infected (HIV-1; 6.35 × 10^-7 Molar): 26.85%; Percent of Protection (HIV-1; 6.35 × 10^-7 Molar, 0.635 µM): 9.69%; Percent of Control, Infected (HIV-1; 6.36 × 10^-8 Molar): 17.12%; Percent of Protection (HIV-1; 6.36 × 10^-8 Molar, 0.0636 µM): -2.32%; EC50 (HIV-1; HIV-1-infected CEM cells, 6 days, approximate values, read-out: EC50 (Molar), 50% effective concentration): 1.08 µM; Conclusion (HIV-1; NCI anti-HIV screen): CONFIRMED ACTIVE
